# Laboratory results reported in patent publication US20240174618A1, “SUBSTITUTED (2-HETEROARYLOXYPHENYL)SULFONATES, SALTS THEREOF AND THEIR USE AS HERBICIDAL AGENTS” (Bayer Aktiengesellschaft, priority 2021, published 2024).
# Key:
# Assay type in all cases: in vivo
# Stellaria media (STEME) [1] = experiment: B. Herbicidal post-emergence efficacy, STEME
# Procedure: (§1) Seeds of mono- and dicotyledonous weed plants were placed in plastic pots in sandy loam soil (doubly sown with in each case one species of mono- or dicotyledonous weed plants per pot), covered with soil and cultivated in a greenhouse under controlled growth conditions. 2 to 3 weeks after sowing, the test plants were treated at the one-leaf stage. The compounds of the invention, formulated in the form of wettable powders (WP) or as emulsion concentrates (EC), were applied onto the green parts of the plants as aqueous suspension or emulsion with addition of 0.5% additive at a water application rate of 600 liters per hectare (converted). After the test plants had been kept in the greenhouse under optimum growth conditions for about 3 weeks, the activity of the preparations was rated visually in comparison to untreated controls.
# (§2) For example, • 100% efficacy=plants have died, • 0% efficacy=like untreated control plants
# (§3) Tables B1a to B12c below show the effects of selected inventive compounds of the general formula (I) according to table 1 on various harmful plants at an application rate corresponding to 1280 g/ha or less, which were obtained by the experimental procedure mentioned above.
# Veronica persica (VERPE) [2] = experiment: B. Herbicidal post-emergence efficacy, VERPE
# Procedure: as §1, §2, §3
# Poa annua (POAAN) [3] = experiment: B. Herbicidal post-emergence efficacy, POAAN; settings: 1280 g/ha
# Procedure: as §1, §2, §3
# [4] = system: Abutilon theophrasti (ABUTH); experiment: B. Herbicidal post-emergence efficacy, ABUTH; settings: rated visually after about 3 weeks
# Procedure: as §1, §2, §3
# [5] = system: Amaranthus retroflexus (AMARE); experiment: A. Herbicidal pre-emergence efficacy, AMARE
# Excerpt: (§4) Seeds of mono- and dicotyledonous weed plants were placed in plastic pots in sandy loam soil (doubly sown with one species each of mono- or dicotyledonous weed plants per pot) and covered with soil. The compounds of the invention, formulated in the form of wettable powders (WP) or as emulsion concentrates (EC), were then applied onto the surface of the covering soil as aqueous suspension or emulsion with addition of 0.5% additive at a water application rate of 600 liters per hectare (converted). After the treatment, the pots were placed in a greenhouse and kept under good growth conditions for the test plants. After about 3 weeks, the efficacy of the preparations was scored visually in comparison with untreated controls as percentages.
# (§5) For example, • 100% efficacy=plants have died, • 0% efficacy=like untreated control plants.
# (§6) Tables A1a to A12c below show the effects of selected compounds of the general formula (I) according to table 1 on various harmful plants at an application rate corresponding to 1280 g/ha or less, which were obtained by the experimental procedure mentioned above.
# [6] = system: Amaranthus retroflexus (AMARE); experiment: B. Herbicidal post-emergence efficacy, AMARE
# Procedure: as §1, §2, §3
# Kochia scoparia (KCHSC) [7] = experiment: A. Herbicidal pre-emergence efficacy, KCHSC
# Excerpt: as §4, §5, §6
# Kochia scoparia (KCHSC) [8] = experiment: B. Herbicidal post-emergence efficacy, KCHSC; settings: for Post-emergence efficacy against KCHSC: 1280 g/ha; for Post-emergence efficacy against KCHSC in %: rated visually after about 3 weeks
# Procedure: as §1, §2, §3
# Stellaria media (STEME) [9] = experiment: A. Herbicidal pre-emergence efficacy, STEME
# Excerpt: as §4, §5, §6
# Veronica persica (VERPE) [10] = experiment: A. Herbicidal pre-emergence efficacy, VERPE; settings: 1280 g/ha
# Excerpt: as §4, §5, §6
# [11] = system: Digitaria sanguinalis (DIGSA); experiment: A. Herbicidal pre-emergence efficacy, DIGSA; settings: scored visually after about 3 weeks vs untreated controls
# Excerpt: as §4, §5, §6
# Poa annua (POAAN) [12] = experiment: A. Herbicidal pre-emergence efficacy, POAAN
# Excerpt: as §4, §5, §6
# Setaria viridis (SETVI) = experiment: A. Herbicidal pre-emergence efficacy, SETVI
# Excerpt: as §4, §5, §6
# [13] = system: Echinochloa crus-galli (ECHCG); experiment: A. Herbicidal pre-emergence efficacy, ECHCG; settings: 1280 g/ha; scored visually after about 3 weeks vs untreated controls
# Excerpt: as §4, §5, §6
# [14] = system: Abutilon theophrasti (ABUTH); experiment: A. Herbicidal pre-emergence efficacy, ABUTH; settings: 1280 g/ha; scored visually after about 3 weeks vs untreated controls
# Excerpt: as §4, §5, §6
# [15] = system: Echinochloa crus-galli (ECHCG); experiment: B. Herbicidal post-emergence efficacy, ECHCG; settings: rated visually after about 3 weeks
# Procedure: as §1, §2, §3
# [16] = pre-emergence, dosage 1280 g/ha
Compound,Post-emergence efficacy against STEME (Stellaria media (STEME) [1]; 1280 g/ha) [%],Post-emergence efficacy against VERPE (Veronica persica (VERPE) [2]; 320 g/ha) [%],Post-emergence efficacy against VERPE (Veronica persica (VERPE) [2]; 1280 g/ha) [%],Post-emergence efficacy against POAAN (Poa annua (POAAN) [3]) [%],Post-emergence efficacy against ABUTH in % ([4]; 1280 g/ha) [%],Pre-emergence efficacy against AMARE in % ([5]; 1280 g/ha) [%],Post-emergence efficacy against AMARE ([6]; 1280 g/ha) [%],Pre-emergence efficacy against KCHSC (Kochia scoparia (KCHSC) [7]; [16]) [%],Post-emergence efficacy against KCHSC (Kochia scoparia (KCHSC) [8]) [%],Pre-emergence efficacy against STEME (Stellaria media (STEME) [9]; dosage 1280 g/ha) [%],Post-emergence efficacy against VERPE (Veronica persica (VERPE) [2]; 80 g/ha) [%],Pre-emergence efficacy against VERPE in % (Veronica persica (VERPE) [10]) [%],Pre-emergence efficacy against DIGSA ([11]; 320 g/ha) [%],Pre-emergence efficacy against DIGSA ([11]; 1280 g/ha) [%],Pre-emergence efficacy against AMARE in % ([5]; 320 g/ha) [%],Pre-emergence efficacy against POAAN (Poa annua (POAAN) [12]; dosage 1280 g/ha) [%],Post-emergence efficacy against AMARE ([6]; 80 g/ha) [%],Post-emergence efficacy against AMARE ([6]; 320 g/ha) [%],Pre-emergence efficacy against SETVI (Setaria viridis (SETVI); dosage 1280 g/ha) [%],Post-emergence efficacy against KCHSC in % (Kochia scoparia (KCHSC) [8]; 320 g/ha) [%],also measured
O=S(=O)(CC(F)(F)F)Oc1ccccc1Oc1ncc(Cl)cn1 [Example I-4],90,90,100,90,90,100,90,100,90,,,,,,,,,,,,
CCCCS(=O)(=O)Oc1c(OC)cccc1Oc1ncc(Cl)cn1 [Example I-17],,,,,,,,,,90,,,,,,,,,,,
O=S(=O)(Oc1ccccc1Oc1ncc(Cl)cn1)C1CC1 [Example I-21],100,100,100,100,,100,100,100,100,100,90,90,100,100,100,100,90,100,100,100,"Post-emergence efficacy against STEME (Stellaria media (STEME) [1]; 320 g/ha): 90%; Pre-emergence efficacy against AMARE in % ([5]; 80 g/ha): 100%; Pre-emergence efficacy against POAAN (Poa annua (POAAN) [12]; dosage 320 g/ha): 100%; Pre-emergence efficacy against STEME (Stellaria media (STEME) [9]; dosage 320 g/ha): 100%; Pre-emergence efficacy against KCHSC (Kochia scoparia (KCHSC) [7]; 80 g/ha, scored visually after about 3 weeks vs untreated controls): 90%; Pre-emergence efficacy against KCHSC (Kochia scoparia (KCHSC) [7]; pre-emergence, dosage 320 g/ha): 100%; Post-emergence efficacy against KCHSC in % (Kochia scoparia (KCHSC) [8]; 80 g/ha): 90%; Pre-emergence efficacy against ECHCG [13]: 100%; Pre-emergence efficacy against ABUTH [14]: 100%"
O=S(=O)(CCCCl)Oc1ccccc1Oc1ccc(Cl)cn1 [Example I-27],90,90,90,,,90,100,100,90,90,,90,90,100,90,90,,90,100,,Pre-emergence efficacy against POAAN (Poa annua (POAAN) [12]; dosage 320 g/ha): 90%; Pre-emergence efficacy against SETVI (Setaria viridis (SETVI); dosage 320 g/ha): 100%; Pre-emergence efficacy against ECHCG [13]: 90%; Pre-emergence efficacy against ABUTH [14]: 90%
N#Cc1ccc(Oc2ccccc2OS(=O)(=O)CCCCl)nc1 [Example I-58],,,90,,90,,90,90,90,,,,,90,,,90,90,,,Pre-emergence efficacy against ABUTH [14]: 90%
O=[N+]([O-])c1cnc(Oc2ccccc2OS(=O)(=O)CCCCl)c(F)c1 [Example I-61],90,,90,,,,90,,90,,,,,,,,90,90,,90,Pre-emergence efficacy against ECHCG [13]: 100%
O=[N+]([O-])c1ccc(Oc2ccccc2OS(=O)(=O)CCCCl)nc1 [Example I-62],,,90,,,,90,,,,,,,,,,,,,,
O=S(=O)(CCCCl)Oc1ccccc1Oc1ccc(C(F)(F)F)cn1 [Example I-63],,,90,,,,90,,,,,,,,,,,,,,
O=S(=O)(CCCCl)Oc1ccccc1Oc1ncc(Cl)cc1F [Example I-64],90,90,90,90,90,100,90,90,90,90,90,100,90,100,90,100,90,90,100,90,Post-emergence efficacy against ABUTH in % ([4]; 320 g/ha): 90%; Post-emergence efficacy against ECHCG in % ([15]; 1280 g/ha): 90%; Post-emergence efficacy against KCHSC in % (Kochia scoparia (KCHSC) [8]; 80 g/ha): 90%; Pre-emergence efficacy against ECHCG [13]: 100%
O=S(=O)(CCCCl)Oc1ccccc1Oc1ncc(Br)cc1F [Example I-65],90,,90,,90,100,90,,,,,,,90,,90,,90,,,
O=S(=O)(CCCC(F)(F)C(F)(F)F)Oc1c(Br)cccc1Oc1ncc(Cl)cn1 [Example I-67],100,100,100,100,100,100,100,100,100,,90,100,,90,100,,100,100,100,100,Post-emergence efficacy against STEME (Stellaria media (STEME) [1]; 320 g/ha): 100%; Post-emergence efficacy against ABUTH in % ([4]; 80 g/ha): 90%; Post-emergence efficacy against ABUTH in % ([4]; 320 g/ha): 90%; Post-emergence efficacy against KCHSC in % (Kochia scoparia (KCHSC) [8]; 80 g/ha): 90%
O=S(=O)(CC1CC1(Cl)Cl)Oc1c(Br)cccc1Oc1ncc(Cl)cn1 (stereo not shown) [Example I-77],90,100,100,,100,100,100,,100,90,100,,90,100,100,100,100,100,100,90,Post-emergence efficacy against ABUTH in % ([4]; 80 g/ha): 90%; Post-emergence efficacy against ABUTH in % ([4]; 320 g/ha): 90%; Pre-emergence efficacy against POAAN (Poa annua (POAAN) [12]; dosage 320 g/ha): 100%; Pre-emergence efficacy against SETVI (Setaria viridis (SETVI); dosage 320 g/ha): 90%; Post-emergence efficacy against ECHCG in % ([15]; 320 g/ha): 90%; Post-emergence efficacy against ECHCG in % ([15]; 1280 g/ha): 100%; Post-emergence efficacy against KCHSC in % (Kochia scoparia (KCHSC) [8]; 80 g/ha): 90%
O=S(=O)(CC=C(Cl)Cl)Oc1c(Br)cccc1Oc1ncc(Cl)cn1 [Example I-84],100,100,100,,90,100,100,90,100,,100,,,,90,,90,100,100,90,
